From patent US20260193264A1, “BENZOYPARAZINE PYRAZINES AND THEIR USES” (FOGHORN THERAPEUTICS INC., priority 2022, published 2026)

Assays:
[1] = target: T1, HiBit-BRG1 fusion protein in stable HeLa cell line expressing HiBit-BRG1 and LgBit (Homo sapiens, UniProt P51532); assay: HiBiT-BRG1 cell-based degradation assay (Nano-Glo HiBiT, 24 h); conditions: HeLa HiBit-BRG1/LgBit cells; for DC50: read-out: BRMG1 HiBit Degradation IC50; for Dmax: top dose 30 μM, read-out: BRG1 HiBit Degradation Maximum (%)
T1 construct: expressed in transfected cells
T1 sequence (P51532 whole entry, the tested form may be a part): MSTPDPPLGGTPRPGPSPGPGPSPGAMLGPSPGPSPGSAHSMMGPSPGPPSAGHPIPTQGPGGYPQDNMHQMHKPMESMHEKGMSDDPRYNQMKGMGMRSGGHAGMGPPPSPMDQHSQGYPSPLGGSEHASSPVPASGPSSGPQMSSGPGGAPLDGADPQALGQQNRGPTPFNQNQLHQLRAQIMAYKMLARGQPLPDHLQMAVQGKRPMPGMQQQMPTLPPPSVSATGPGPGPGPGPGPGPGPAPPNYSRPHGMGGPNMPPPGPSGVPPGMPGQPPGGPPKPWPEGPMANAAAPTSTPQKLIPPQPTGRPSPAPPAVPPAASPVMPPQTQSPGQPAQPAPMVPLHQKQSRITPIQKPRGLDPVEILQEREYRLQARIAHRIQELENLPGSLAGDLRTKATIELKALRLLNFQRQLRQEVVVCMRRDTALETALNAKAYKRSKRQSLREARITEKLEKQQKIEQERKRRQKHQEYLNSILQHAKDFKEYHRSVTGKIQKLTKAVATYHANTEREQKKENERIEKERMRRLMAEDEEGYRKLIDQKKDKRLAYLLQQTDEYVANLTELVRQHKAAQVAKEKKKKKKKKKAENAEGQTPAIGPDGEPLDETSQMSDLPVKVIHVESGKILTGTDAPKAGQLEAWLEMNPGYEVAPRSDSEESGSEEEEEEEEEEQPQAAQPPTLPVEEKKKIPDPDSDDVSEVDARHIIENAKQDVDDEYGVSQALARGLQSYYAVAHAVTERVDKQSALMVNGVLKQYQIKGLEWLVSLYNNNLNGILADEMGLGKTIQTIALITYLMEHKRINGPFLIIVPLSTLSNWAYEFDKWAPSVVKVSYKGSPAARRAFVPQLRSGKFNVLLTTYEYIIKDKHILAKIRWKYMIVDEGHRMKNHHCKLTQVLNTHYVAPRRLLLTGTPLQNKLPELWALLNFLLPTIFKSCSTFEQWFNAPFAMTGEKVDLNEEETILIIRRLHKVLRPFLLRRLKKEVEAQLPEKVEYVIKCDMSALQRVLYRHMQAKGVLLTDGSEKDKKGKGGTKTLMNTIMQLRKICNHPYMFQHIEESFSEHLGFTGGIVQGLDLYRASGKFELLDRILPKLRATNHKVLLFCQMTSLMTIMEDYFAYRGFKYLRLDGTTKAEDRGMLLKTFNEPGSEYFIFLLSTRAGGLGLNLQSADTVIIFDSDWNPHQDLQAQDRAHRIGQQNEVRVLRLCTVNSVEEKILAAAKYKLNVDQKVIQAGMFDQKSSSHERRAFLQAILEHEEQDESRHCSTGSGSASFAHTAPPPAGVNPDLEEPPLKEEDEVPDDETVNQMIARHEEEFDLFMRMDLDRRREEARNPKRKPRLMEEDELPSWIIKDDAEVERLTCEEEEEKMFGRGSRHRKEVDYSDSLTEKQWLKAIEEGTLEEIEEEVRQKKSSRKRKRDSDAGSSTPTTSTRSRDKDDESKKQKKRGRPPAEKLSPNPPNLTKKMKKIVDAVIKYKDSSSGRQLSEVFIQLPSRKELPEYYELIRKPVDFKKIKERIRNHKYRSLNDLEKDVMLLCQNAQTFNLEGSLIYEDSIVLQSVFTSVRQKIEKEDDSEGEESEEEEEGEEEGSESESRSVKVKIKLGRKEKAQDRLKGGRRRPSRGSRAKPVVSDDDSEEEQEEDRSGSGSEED
In short: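 Stable HeLa line co-expressing HiBiT-BRG1 and LgBiT, compound-treated 24 h; luminescence read after Nano-Glo HiBiT lytic reagent. % degradation normalised between DMSO (high control) and 2 μM reference BRM/BRG1 degrader (low control).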

[2] = target: T2, HiBiT-BRM fusion protein in stable HeLa cell line (Homo sapiens, UniProt P51531); assay: HiBiT-BRM cell-based degradation assay (Nano-Glo HiBiT Lytic Detection, 24 h); parameters: DC50: scale not given here; conditions: HeLa HiBiT-BRM cells; for DC50: read-out: BRM HiBit Degradation IC50; for BRM HiBit Degradation Maximum (%): top dose 30 μM
T2 construct: expressed in transfected cells
T2 sequence (P51531 whole entry, the tested form may be a part): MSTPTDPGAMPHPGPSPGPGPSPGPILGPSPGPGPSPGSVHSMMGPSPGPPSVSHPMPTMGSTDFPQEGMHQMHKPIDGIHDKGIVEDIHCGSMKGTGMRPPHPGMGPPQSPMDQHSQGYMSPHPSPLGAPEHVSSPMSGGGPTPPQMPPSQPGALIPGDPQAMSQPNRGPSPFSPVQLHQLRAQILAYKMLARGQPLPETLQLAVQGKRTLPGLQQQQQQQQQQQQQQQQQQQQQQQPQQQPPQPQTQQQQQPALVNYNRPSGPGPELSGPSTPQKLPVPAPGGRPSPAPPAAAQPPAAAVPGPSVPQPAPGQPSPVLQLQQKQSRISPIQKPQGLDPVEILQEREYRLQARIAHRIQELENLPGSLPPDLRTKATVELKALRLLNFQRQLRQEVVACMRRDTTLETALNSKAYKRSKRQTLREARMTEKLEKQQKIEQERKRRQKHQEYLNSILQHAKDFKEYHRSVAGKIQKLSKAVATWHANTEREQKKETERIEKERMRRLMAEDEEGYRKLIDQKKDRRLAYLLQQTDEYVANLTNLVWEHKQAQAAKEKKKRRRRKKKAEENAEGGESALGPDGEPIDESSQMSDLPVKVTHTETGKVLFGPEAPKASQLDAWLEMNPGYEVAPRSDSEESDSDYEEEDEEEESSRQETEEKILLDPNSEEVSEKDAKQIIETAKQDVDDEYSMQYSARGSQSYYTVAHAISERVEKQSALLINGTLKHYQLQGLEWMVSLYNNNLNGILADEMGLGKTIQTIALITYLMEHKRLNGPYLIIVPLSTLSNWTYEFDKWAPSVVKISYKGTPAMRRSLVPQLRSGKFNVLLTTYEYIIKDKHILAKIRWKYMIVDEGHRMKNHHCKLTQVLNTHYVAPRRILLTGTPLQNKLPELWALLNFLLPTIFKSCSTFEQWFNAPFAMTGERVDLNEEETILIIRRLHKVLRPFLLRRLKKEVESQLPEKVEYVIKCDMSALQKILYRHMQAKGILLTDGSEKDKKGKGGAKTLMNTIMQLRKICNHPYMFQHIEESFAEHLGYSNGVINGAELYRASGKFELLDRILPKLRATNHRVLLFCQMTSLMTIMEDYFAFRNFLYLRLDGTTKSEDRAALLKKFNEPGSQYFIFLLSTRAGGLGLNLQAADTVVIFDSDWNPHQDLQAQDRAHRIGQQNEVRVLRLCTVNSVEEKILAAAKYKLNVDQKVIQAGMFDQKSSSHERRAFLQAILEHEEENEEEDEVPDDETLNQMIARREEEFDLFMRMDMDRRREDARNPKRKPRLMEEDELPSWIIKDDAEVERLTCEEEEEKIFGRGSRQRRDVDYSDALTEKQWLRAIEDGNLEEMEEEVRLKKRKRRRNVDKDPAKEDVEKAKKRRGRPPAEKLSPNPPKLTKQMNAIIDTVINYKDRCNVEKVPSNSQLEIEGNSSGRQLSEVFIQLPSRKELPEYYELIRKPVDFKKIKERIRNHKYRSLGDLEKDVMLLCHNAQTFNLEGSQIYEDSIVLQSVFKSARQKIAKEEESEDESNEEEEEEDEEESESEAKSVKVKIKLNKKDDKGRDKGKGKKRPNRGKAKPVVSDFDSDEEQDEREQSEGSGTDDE
In short: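 Stable HiBiT-BRM HeLa cells treated 24 h with 10-point 3-fold dilutions, top final dose 30 μM, in duplicate. Luminescence read after lytic LgBiT reagent. Percent degradation was normalised to DMSO (high control) and 2 μM reference BRM/BRG1 degrader (low control).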

Structure (SMILES) | DC50 [1] [nM] | Dmax [1] [%] | DC50 [2] [nM] | BRM HiBit Degradation Maximum (%) [2]
Cc1ncsc1-c1ccc([C@H](C)NC(=O)[C@@H]2C[C@@H](O)CN2C(=O)C(C(C)C)n2cc(N3CC4CCN(c5ccc6cc(-c7ccccc7O)nnc6c5)CC43)nn2)cc1 (stereo partly drawn) [Compound 249, (2S,4R)-4-hydroxy-1-(2-(4-(3-(3-(2-hydroxyphenyl)cinnolin-7-yl)-3,8-diazabicyclo[4.2.0]octan-8-yl)-1H-1,2,3-triazol-1-yl)-3-methylbutanoyl)-N-((S)-1-(4-(4-methylthiazol-5-yl)phenyl)ethyl)pyrrolidine-2-carboxamide] | > 100 | > 75 | > 10 | A (“A” indicates maximum degradation ≥75%)
Cc1ncsc1-c1ccc([C@H](C)NC(=O)[C@@H]2C[C@@H](O)CN2C(=O)[C@@H](c2cc(N3CCC(N4CC5(CN(Cc6ccc7nnc(-c8ccccc8O)cc7c6)C5)C4)CC3)no2)C(C)C)cc1 [Compound 256, (2S,4R)-4-hydroxy-1-((R)-2-(3-(4-(6-((3-(2-hydroxyphenyl)cinnolin-6-yl)methyl)-2,6-diazaspiro [3.3]heptan-2-yl)piperidin-1-yl)isoxazol-5-yl)-3-methylbutanoyl)-N-((S)-1-(4-(4-methylthiazol-5-yl)phenyl)ethyl)pyrrolidine-2-carboxamide] | > 10 | > 75 | > 100 | B (“B” indicates maximum degradation ≥50%)
Cc1ncsc1-c1ccc([C@@H](C)NC(=O)[C@H]2C[C@H](O)CN2C(=O)[C@H](C(C)C)n2cc(N3CC4(CN(c5ccc6nnc(-c7ccccc7O)cc6c5)C4)C3)cn2)cc1 [Compound 258, (2R,4S)-4-hydroxy-1-[(2S)-2-(4-{6-[3-(2-hydroxyphenyl)cinnolin-6-yl]-2,6-diazaspiro[3.3]heptan-2-yl}pyrazol-1-yl)-3-methylbutanoyl]-N-[(1R)-1-[4-(4-methyl-1,3-thiazol-5-yl)phenyl]ethyl]pyrrolidine-2-carboxamide] | > 10 | > 50 | > 10 | A (“A” indicates maximum degradation ≥75%)
Cc1ncsc1-c1ccc([C@H](C)NC(=O)[C@@H]2C[C@@H](O)CN2C(=O)C(C(C)C)n2cc(N3CCC(CN4CCN(c5ccc6cc(-c7ccccc7O)nnc6c5)CC4)CC3)nn2)cc1 (stereo partly drawn) [Compound 259, (2S,4R)-4-hydroxy-1-(2-(4-(4-((4-(3-(2-hydroxyphenyl)cinnolin-7-yl)piperazin-1-yl)methyl)piperidin-1-yl)-1H-1,2,3-triazol-1-yl)-3-methylbutanoyl)-N-((S)-1-(4-(4-methylthiazol-5-yl)phenyl)ethyl)pyrrolidine-2-carboxamide] | > 10 | > 75 | < 10 | A (“A” indicates maximum degradation ≥75%)
Cc1ncsc1-c1ccc([C@H](C)NC(=O)[C@@H]2C[C@@H](O)CN2C(=O)C(C(C)C)n2cc(N3CCN(CC4CCCN(c5ccc6cc(-c7ccccc7O)nnc6c5)C4)CC3)nn2)cc1 (stereo partly drawn) [Compound 260, (2S,4R)-4-hydroxy-1-(2-(4-(4-((1-(3-(2-hydroxyphenyl)cinnolin-7-yl)piperidin-3-yl)methyl)piperazin-1-yl)-1H-1,2,3-triazol-1-yl)-3-methylbutanoyl)-N-((S)-1-(4-(4-methylthiazol-5-yl)phenyl)ethyl)pyrrolidine-2-carboxamide] | > 10 | > 75 | > 10 | A (“A” indicates maximum degradation ≥75%)
Cc1ncsc1-c1ccc([C@H](C)NC(=O)[C@@H]2C[C@@H](O)CN2C(=O)C(C(C)C)n2cc(N3CCCC(CN4CCN(c5ccc6cc(-c7ccccc7O)nnc6c5)CC4)C3)nn2)cc1 (stereo partly drawn) [Compound 261, (2S,4R)-4-hydroxy-1-(2-(4-(3-((4-(3-(2-hydroxyphenyl)cinnolin-7-yl)piperazin-1-yl)methyl)piperidin-1-yl)-1H-1,2,3-triazol-1-yl)-3-methylbutanoyl)-N-((S)-1-(4-(4-methylthiazol-5-yl)phenyl)ethyl)pyrrolidine-2-carboxamide] | > 10 | > 75 | > 10 | A (“A” indicates maximum degradation ≥75%)

Continued, in another order:

DC50 [1] [nM] | Dmax [1] [%] | DC50 [2] [nM] | Structure (SMILES) | BRM HiBit Degradation Maximum (%) [2]
< 10 | > 75 | < 10 | Cc1ncsc1-c1ccc([C@H](C)NC(=O)[C@@H]2C[C@@H](O)CN2C(=O)C(C(C)C)n2cc(N3CCN(CC4CCN(c5ccc6cc(-c7ccccc7O)nnc6c5)CC4)CC3)nn2)cc1 (stereo partly drawn) [Compound 247, (2S,4R)-4-hydroxy-1-(2-(4-(4-((1-(3-(2-hydroxyphenyl)cinnolin-7-yl)piperidin-4-yl)methyl)piperazin-1-yl)-1H-1,2,3-triazol-1-yl)-3-methylbutanoyl)-N-((S)-1-(4-(4-methylthiazol-5-yl)phenyl)ethyl)pyrrolidine-2-carboxamide] | A (“A” indicates maximum degradation ≥75%)
> 10 | > 75 | < 10 | Cc1ncsc1-c1ccc([C@H](C)NC(=O)[C@@H]2C[C@@H](O)CN2C(=O)C(C(C)C)n2cc(N3CCC4CCN(c5ccc6cc(-c7ccccc7O)nnc6c5)C4C3)nn2)cc1 (stereo partly drawn) [Compound 248, (2S,4R)-4-hydroxy-1-(2-(4-(1-(3-(2-hydroxyphenyl)cinnolin-7-yl)octahydro-6H-pyrrolo[2,3-c]pyridin-6-yl)-1H-1,2,3-triazol-1-yl)-3-methylbutanoyl)-N-((S)-1-(4-(4-methylthiazol-5-yl)phenyl)ethyl)pyrrolidine-2-carboxamide] | A (“A” indicates maximum degradation ≥75%)
< 10 | > 75 | < 10 | Cc1ncsc1-c1ccc([C@H](C)NC(=O)[C@@H]2C[C@@H](O)CN2C(=O)C(C(C)C)n2cc(N3CC4CN(c5ccc6cc(-c7ccccc7O)nnc6c5)CCC43)nn2)cc1 (stereo partly drawn) [Compound 250, (2S,4R)-4-hydroxy-1-(2-(4-(3-(3-(2-hydroxyphenyl)cinnolin-7-yl)-3,7-diazabicyclo[4.2.0]octan-7-yl)-1H-1,2,3-triazol-1-yl)-3-methylbutanoyl)-N-((S)-1-(4-(4-methylthiazol-5-yl)phenyl)ethyl)pyrrolidine-2-carboxamide] | A (“A” indicates maximum degradation ≥75%)
< 10 | > 75 | < 10 | Cc1ncsc1-c1ccc([C@H](C)NC(=O)[C@@H]2C[C@@H](O)CN2C(=O)C(C(C)C)n2cc(N3CCCC4(CCN(c5ccc6cc(-c7ccccc7O)nnc6c5)CC4)C3)nn2)cc1 (stereo partly drawn) [Compound 251, (2S,4R)-4-hydroxy-1-(2-(4-(9-(3-(2-hydroxyphenyl)cinnolin-7-yl)-2,9-diazaspiro[5.5]undecan-2-yl)-1H-1,2,3-triazol-1-yl)-3-methylbutanoyl)-N-((S)-1-(4-(4-methylthiazol-5-yl)phenyl)ethyl)pyrrolidine-2-carboxamide] | A (“A” indicates maximum degradation ≥75%)
< 10 | > 75 | < 10 | Cc1ncsc1-c1ccc([C@H](C)NC(=O)[C@@H]2C[C@@H](O)CN2C(=O)[C@@H](c2cc(N3CC4(CC(c5cc6nnc(-c7ccccc7O)cc6cc5C5CC5)C4)C3)no2)C(C)C)cc1 [Compound 252, (2S,4R)-1-((R)-2-(3-(6-(6-cyclopropyl-3-(2-hydroxyphenyl)cinnolin-7-yl)-2-azaspiro[3.3]heptan-2-yl)isoxazol-5-yl)-3-methylbutanoyl)-4-hydroxy-N-((S)-1-(4-(4-methylthiazol-5-yl)phenyl)ethyl)pyrrolidine-2-carboxamide] | A (“A” indicates maximum degradation ≥75%)
< 10 | > 75 | < 10 | Cc1ncsc1-c1ccc([C@H](C)NC(=O)[C@@H]2C[C@@H](O)CN2C(=O)[C@@H](c2cc(N3CC4(C3)CN(c3cc5nnc(-c6ccccc6O)cc5cc3OC3CC3)C4)no2)C(C)C)cc1 [Compound 253, (2S,4R)-1-((R)-2-(3-(6-(6-cyclopropoxy-3-(2-hydroxyphenyl)cinnolin-7-yl)-2,6-diazaspiro[3.3]heptan-2-yl)isoxazol-5-yl)-3-methylbutanoyl)-4-hydroxy-N-((S)-1-(4-(4-methylthiazol-5-yl)phenyl)ethyl)pyrrolidine-2-carboxamide] | A (“A” indicates maximum degradation ≥75%)
– | < 50 | < 10 | C#Cc1ccc([C@H](C)NC(=O)[C@@H]2C[C@@H](O)CN2C(=O)[C@H](C(C)C)n2cc(N3CC4(CN(c5ccc6cc(-c7ccccc7O)nnc6c5)C4)C3)nn2)cc1 [Compound 254, (2S,4R)-N-((S)-1-(4-ethynylphenyl)ethyl)-4-hydroxy-1-((S)-2-(4-(6-(3-(2-hydroxyphenyl)cinnolin-7-yl)-2,6-diazaspiro[3.3]heptan-2-yl)-1H-1,2,3-triazol-1-yl)-3-methylbutanoyl)pyrrolidine-2-carboxamide] | A (“A” indicates maximum degradation ≥75%)
– | < 50 | < 10 | C#Cc1ccc(CNC(=O)[C@@H]2C[C@@H](O)CN2C(=O)[C@H](C(C)C)n2cc(N3CC4(CN(c5ccc6cc(-c7ccccc7O)nnc6c5)C4)C3)nn2)cc1 [Compound 255, (2S,4R)-N-(4-ethynylbenzyl)-4-hydroxy-1-((S)-2-(4-(6-(3-(2-hydroxyphenyl)cinnolin-7-yl)-2,6-diazaspiro[3.3]heptan-2-yl)-1H-1,2,3-triazol-1-yl)-3-methylbutanoyl)pyrrolidine-2-carboxamide] | A (“A” indicates maximum degradation ≥75%)
